Measured values published in PubChem BioAssay AID180 (DTP/NCI, 2004).
“And” between values parts separate entries of the source, which are not always exact repeats. Equal entries are not always repeated.

Test system: BDF1 mice, Adenocarcinoma 755 s.c., tumor weight T/C
Assay: NCI In Vivo Anticancer Drug Screen. Data for tumor model Adenocarcinoma 755 (subcutaneous) in B6D2F1 (BDF1) mice
Conditions: endpoint: mean tumor weight, higher = larger tumour
Procedure, shortened: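 Transplantable tumor implanted; mice dosed with compound or vehicle; survival or tumor size recorded; ratio of treated to vehicle control reported.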

With `CCCCOP(=S)(N1CC1)N1CC1` the T/C (dose: 0.19 mg/kg/injection, schedule: Q01DX011 (ip), vehicle: other) was 44 % of control, the T/C (dose: 0.19 mg/kg/injection, schedule: Q01DX011 (ip), vehicle: saline) was 102 % of control and the T/C (dose: 0.37 mg/kg/injection, schedule: Q01DX011 (ip), vehicle: other) was 38 % of control. The T/C (dose: 0.37 mg/kg/injection, schedule: Q01DX011 (ip), vehicle: saline) was 97 % of control, the T/C (dose: 0.75 mg/kg/injection, schedule: Q01DX011 (ip), vehicle: carboxymethylcellulose (CMC)) was 73 % of control and the T/C (dose: 0.75 mg/kg/injection, schedule: Q01DX011 (ip), vehicle: other) was 26 % of control. The T/C (dose: 0.75 mg/kg/injection, schedule: Q01DX011 (ip), vehicle: saline) was 113 % of control, the T/C (dose: 1.5 mg/kg/injection, schedule: Q01DX011 (ip), vehicle: carboxymethylcellulose (CMC)) was 78 % of control and the T/C (dose: 1.5 mg/kg/injection, schedule: Q01DX011 (ip), vehicle: other) was 14 % of control. The T/C (dose: 1.5 mg/kg/injection, schedule: Q01DX011 (ip), vehicle: saline) was 90 % of control, the T/C (dose: 3.0 mg/kg/injection, schedule: Q01DX011 (ip), vehicle: carboxymethylcellulose (CMC)) was 23 % of control and the T/C (dose: 3.0 mg/kg/injection, schedule: Q01DX011 (ip), vehicle: other) was 7 % of control. For the same compound, the T/C (dose: 3.0 mg/kg/injection, schedule: Q01DX011 (ip), vehicle: saline) was 42 % of control, the T/C (dose: 3.0 mg/kg/injection, schedule: Q## X000 (ip), vehicle: saline) was 460 % of control and the T/C (dose: 6.0 mg/kg/injection, schedule: Q## X000 (ip), vehicle: saline) was 153 % of control. The T/C (dose: 12.0 mg/kg/injection, schedule: Q## X000 (ip), vehicle: saline) was 23 % of control.
`O=c1[nH]c2[nH]c(S(=O)(=O)O)nc(=S)c2[nH]1` was tested, and the T/C (dose: 75.0 mg/kg/injection, schedule: Q01DX011 (ip), vehicle: methylcellulose (MC)) was 43 % of control, the T/C (dose: 150.0 mg/kg/injection, schedule: Q01DX011 (ip), vehicle: methylcellulose (MC)) was 55 % of control and the T/C (dose: 300.0 mg/kg/injection, schedule: Q01DX011 (ip), vehicle: methylcellulose (MC)) was 67 % of control. For the same compound, the T/C (dose: 600.0 mg/kg/injection, schedule: Q01DX011 (ip), vehicle: methylcellulose (MC)) was 28 % of control.
`CCC(C)Cn1cnc2c(=S)nc(N)[nH]c21` (stereo unspecified) was tested, and the T/C (dose: 15.0 mg/kg/injection, schedule: Q01DX011 (ip), vehicle: methylcellulose (MC)) was 2 % of control.
`Cc1ccc(S(=O)(=O)OCC2OC(n3cnc4c(=O)[nH]c(N)nc43)C(O)C2O)cc1` (stereo unspecified) was tested, and the T/C (dose: 5.0 mg/kg/injection, schedule: Q01DX011 (ip), vehicle: carboxymethylcellulose (CMC)) was 108 % of control, the T/C (dose: 30.0 mg/kg/injection, schedule: Q01DX011 (ip), vehicle: carboxymethylcellulose (CMC)) was 97 % of control and the T/C (dose: 60.0 mg/kg/injection, schedule: Q01DX011 (ip), vehicle: carboxymethylcellulose (CMC)) was 100 % of control. For the same compound, the T/C (dose: 120.0 mg/kg/injection, schedule: Q01DX011 (ip), vehicle: carboxymethylcellulose (CMC)) was 98 % of control and the T/C (dose: 240.0 mg/kg/injection, schedule: Q01DX011 (ip), vehicle: carboxymethylcellulose (CMC)) was 62 % of control.
`N/C(=N\O)c1nsnc1N` was tested, and the T/C (dose: 50.0 mg/kg/injection, schedule: Q01DX011 (ip), vehicle: carboxymethylcellulose (CMC)) was 85 % of control and the T/C (dose: 100.0 mg/kg/injection, schedule: Q01DX011 (ip), vehicle: carboxymethylcellulose (CMC)) was 71 % of control.
`CS(=O)(=O)OCCC(=O)N1CN(C(=O)CCOS(C)(=O)=O)CN(C(=O)CCOS(C)(=O)=O)C1` was tested, and the T/C (dose: 28.0 mg/kg/injection, schedule: Q01DX011 (ip), vehicle: methylcellulose (MC)) was 115 % of control, the T/C (dose: 57.0 mg/kg/injection, schedule: Q01DX011 (ip), vehicle: methylcellulose (MC)) was 110 % of control and the T/C (dose: 225.0 mg/kg/injection, schedule: Q01DX011 (ip), vehicle: methylcellulose (MC)) was 81 % of control.
In the case of `CCN(CC)c1ccc(/C=C/c2ccnc3ccccc23)cc1`, the T/C (dose: 2.5 mg/kg/injection, schedule: Q01DX011 (ip), vehicle: other) is reported as 86 % of control, the T/C (dose: 3.03 mg/kg/injection, schedule: Q01DX011 (ip), vehicle: carboxymethylcellulose (CMC)) is reported as 77 % of control and the T/C (dose: 3.23 mg/kg/injection, schedule: Q01DX011 (ip), vehicle: other) is reported as 84 % of control. For the same compound, the T/C (dose: 4.8 mg/kg/injection, schedule: Q01DX011 (ip), vehicle: carboxymethylcellulose (CMC)) was 74 % of control, the T/C (dose: 5.0 mg/kg/injection, schedule: Q01DX011 (ip), vehicle: other) was 91 % of control and the T/C (dose: 6.0 mg/kg/injection, schedule: Q01DX011 (ip), vehicle: carboxymethylcellulose (CMC)) was 69 % of control. For the same compound, the T/C (dose: 6.05 mg/kg/injection, schedule: Q01DX011 (ip), vehicle: carboxymethylcellulose (CMC)) was 119 % of control, the T/C (dose: 6.45 mg/kg/injection, schedule: Q01DX011 (ip), vehicle: other) was 115 % of control and the T/C (dose: 8.0 mg/kg/injection, schedule: Q01DX011 (ip), vehicle: carboxymethylcellulose (CMC)) was 55 % of control. The T/C (dose: 9.68 mg/kg/injection, schedule: Q01DX011 (ip), vehicle: carboxymethylcellulose (CMC)) was 64 % of control, the T/C (dose: 12.0 mg/kg/injection, schedule: Q01DX011 (ip), vehicle: carboxymethylcellulose (CMC)) was 46 % of control and the T/C (dose: 12.1 mg/kg/injection, schedule: Q01DX011 (ip), vehicle: carboxymethylcellulose (CMC)) was 31 % of control. For the same compound, the T/C (dose: 12.9 mg/kg/injection, schedule: Q01DX011 (ip), vehicle: other) was 55 % of control, the T/C (dose: 14.0 mg/kg/injection, schedule: Q01DX011 (ip), vehicle: carboxymethylcellulose (CMC)) was 70 % of control and the T/C (dose: 15.0 mg/kg/injection, schedule: Q01DX011 (ip), vehicle: other) was 25 % of control. The T/C (dose: 16.13 mg/kg/injection, schedule: Q01DX011 (ip), vehicle: carboxymethylcellulose (CMC)) was 52 % of control.
In the case of `CCN(CC)P(=O)(N1CC1)N1CC1`, the T/C (dose: 0.5 mg/kg/injection, schedule: Q01DX011 (ip), vehicle: saline) is reported as 60 % of control, the T/C (dose: 1.0 mg/kg/injection, schedule: Q01DX011 (ip), vehicle: saline) is reported as 68 % of control and the T/C (dose: 2.0 mg/kg/injection, schedule: Q01DX011 (ip), vehicle: other) is reported as 50 % of control. The T/C (dose: 2.0 mg/kg/injection, schedule: Q01DX011 (ip), vehicle: saline) was 43 % of control and 47 % of control, the T/C (dose: 4.0 mg/kg/injection, schedule: Q01DX011 (ip), vehicle: other) was 26 % of control and the T/C (dose: 4.0 mg/kg/injection, schedule: Q01DX011 (ip), vehicle: saline) was 18 % of control and 39 % of control. For the same compound, the T/C (dose: 8.0 mg/kg/injection, schedule: Q01DX011 (ip), vehicle: other) was 14 % of control and the T/C (dose: 8.0 mg/kg/injection, schedule: Q01DX011 (ip), vehicle: saline) was 10 % of control.
`C[C@]12C=CC(=O)C=C1[C@@H](F)C[C@@H]1[C@@H]2[C@@H](O)C[C@@]2(C)[C@H]1CC[C@]2(O)C(=O)CO` was tested, and the T/C (dose: 3.0 mg/kg/injection, schedule: Q01DX011 (ip), vehicle: methylcellulose (MC)) was 63 % of control and 64 % of control, the T/C (dose: 3.0 mg/kg/injection, schedule: Q01DX011 (sc), vehicle: steriod suspending solution) was 51 % of control and the T/C (dose: 6.0 mg/kg/injection, schedule: Q01DX011 (ip), vehicle: methylcellulose (MC)) was 41 % of control and 43 % of control. For the same compound, the T/C (dose: 6.0 mg/kg/injection, schedule: Q01DX011 (sc), vehicle: steriod suspending solution) was 53 % of control, the T/C (dose: 12.0 mg/kg/injection, schedule: Q01DX011 (ip), vehicle: methylcellulose (MC)) was 37 % of control and 41 % of control and the T/C (dose: 12.0 mg/kg/injection, schedule: Q01DX011 (sc), vehicle: steriod suspending solution) was 46 % of control. For the same compound, the T/C (dose: 24.0 mg/kg/injection, schedule: Q01DX011 (ip), vehicle: methylcellulose (MC)) was 30 % of control and 40 % of control, the T/C (dose: 24.0 mg/kg/injection, schedule: Q01DX011 (sc), vehicle: steriod suspending solution) was 30 % of control and the T/C (dose: 48.0 mg/kg/injection, schedule: Q01DX011 (sc), vehicle: steriod suspending solution) was 23 % of control.
`NC(=O)OCCI` was tested, and the T/C (dose: 3.1 mg/kg/injection, schedule: Q01DX011 (ip), vehicle: methylcellulose (MC)) was 47 % of control, the T/C (dose: 12.5 mg/kg/injection, schedule: Q01DX011 (ip), vehicle: methylcellulose (MC)) was 52 % of control and 61 % of control and the T/C (dose: 25.0 mg/kg/injection, schedule: Q01DX011 (ip), vehicle: methylcellulose (MC)) was 31 % of control and 47 % of control. The T/C (dose: 50.0 mg/kg/injection, schedule: Q01DX011 (ip), vehicle: methylcellulose (MC)) was 7 % of control and the T/C (dose: 100.0 mg/kg/injection, schedule: Q01DX011 (ip), vehicle: methylcellulose (MC)) was 1 % of control.
In the case of `CC(=O)Nc1c(Cl)c(Cl)c2c(c1Cl)Cc1cc(Cl)ccc1-2`, the T/C (dose: 27.0 mg/kg/injection, schedule: Q01DX011 (ip), vehicle: acetone) is reported as 87 % of control, the T/C (dose: 55.0 mg/kg/injection, schedule: Q01DX011 (ip), vehicle: acetone) is reported as 31 % of control and the T/C (dose: 110.0 mg/kg/injection, schedule: Q01DX011 (ip), vehicle: other) is reported as 46 % of control. For the same compound, the T/C (dose: 110.0 mg/kg/injection, schedule: Q01DX011 (ip), vehicle: saline) was 31 % of control, the T/C (dose: 225.0 mg/kg/injection, schedule: Q01DX011 (ip), vehicle: other) was 32 % of control and the T/C (dose: 225.0 mg/kg/injection, schedule: Q01DX011 (ip), vehicle: saline) was 8 % of control. For the same compound, the T/C (dose: 450.0 mg/kg/injection, schedule: Q01DX011 (ip), vehicle: other) was 19 % of control.
